Legend:
Assay in all cases: Culture with hemin and agitation, different strains (Example 4)
Type in all cases: cell-based, L. lactis
IL801 = conditions: strain IL801, hemin 10 μg/ml and agitation, M17 1% glucose, 24 h
MG1363 = conditions: strain MG1363, hemin 10 μg/ml and agitation, M17 1% glucose, 24 h
Method: (§1) Bacteria [MG1363 and 7 strains (IL1403, IL582, IL801, IL896, Z105, Z106, Z191) representative of L. lactis subgroups [TAILLEZ et al., System. Appl. Microbiol., 21, 530-538, (1998)] are cultured in M17 medium (1% glucose) inoculated (1/1000 dilution) with a saturated starter culture previously grown at 30° C. for 24 h. Hemin at a final concentration of 10 μg/ml is added to the inoculated medium before aerating the cultures by shaking (minimum 220 rpm). Control cultures are grown in parallel with no hemin in the medium, and no shaking. […]

IL582 = conditions: strain IL582, hemin 10 μg/ml and agitation, M17 1% glucose, 24 h
Method: as §1

IL1403 = conditions: strain IL1403, hemin 10 μg/ml and agitation, M17 1% glucose, 24 h
Method: as §1

Z191 = conditions: strain Z191, hemin 10 μg/ml and agitation, M17 1% glucose, 24 h
Method: as §1

Z105 = conditions: strain Z105, hemin 10 μg/ml and agitation, M17 1% glucose, 24 h
Method: as §1

IL896 = conditions: strain IL896, hemin 10 μg/ml and agitation, M17 1% glucose, 24 h
Method: as §1

C=CC1=C(C)c2cc3[n-]c(cc4nc(cc5[n-]c(cc1n2)c(C)c5C=C)C(C)=C4CCC(=O)O)c(CCC(=O)O)c3C.[Cl-].[Fe+3] [hemin]
pH (IL801; final pH): 5.44 | OD500 nm (IL801): 4.3 | pH (MG1363; final pH): 5.86 | OD500 nm (MG1363): 5 | pH (IL582; final pH): 5.73 | OD500 nm (IL582): 5.1 | pH (IL1403; final pH): 5.41 | OD500 nm (IL1403): 5.3 | pH (Z191; final pH): 5.36 | OD500 nm (Z191): 3.8 | pH (Z105; final pH): 5.67 | OD500 nm (Z105): 5 | pH (IL896; final pH): 5.24 | OD500 nm (IL896): 4.5
